SMILES strings stand for the structures. The source made the active and inactive calls. For most assays here, no stated cut-off is given here; in the data, actives have a measured EC50 and inactives only a lower limit. Bounds are passed on as bounds.

Tested on in one test: not listed separately
Description: NIH-3T3 fibroblast cytotoxicity, dose response, cytotoxicity control, cell-based, fluorescence, Alamar Blue, secondary assay (AID 2327).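 Further: NIH-3T3 mouse fibroblasts cultured with fluconazole at 8 µg/mL.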
Details: not given
The class given is functional. (The colour change of resazurin is a common sign of viable cells or microbes.)
Regarding `O=C(O)c1cnc(-c2ccccc2)nc1Sc1ccc(Cl)cc1Cl`, the EC50 is 57.8 µM (active).
On to `COc1cccc2c1Oc1ncccc1N(C(=O)CCC(=O)NCc1ccccc1F)C2`, for which the EC50 is 19.4 µM (inconclusive).
Same read-out and setting: for `CC[n+]1c(/C=C/N(C)c2ccccc2)oc2ccccc21` the value was > 150 µM (inactive); for `Nc1ccccc1-[n+]1c(-c2ccccc2)cc(-c2ccccc2)cc1-c1ccccc1.[O-][Cl+3]([O-])([O-])[O-]`, > 150 µM (inactive); for `O=C(NNc1ccc([N+](=O)[O-])cc1)c1ccccc1Cl`, > 150 µM (inactive).
For `CCCNC(=O)C12CCC(C)(c3nc4cc(C)c(C)cc4nc31)C2(C)C` (stereo not given), the EC50 was 113 µM (active).
Turning to `O=S(=O)(Nc1nc(-c2ccccc2)cs1)c1cc(Cl)ccc1Cl`, the EC50 is > 160 µM (inactive).

Tested on in a further test: not listed separately
Description: viability of uninfected HEp-2 cells – cell-based, HTS, cytotoxicity control for RSV inhibitor project, dose response (AID 2410). To be noted: human respiratory syncytial virus. The format is functional.
Usually CC50 stands for the concentration that lowers cell viability or growth by half. As for `Cc1ccc(-c2nn(-c3ccccc3)cc2/C=N/O)cc1`, the CC50 is 27.9 µM (active).

Tested on in a further test: not listed separately
Description: Luminescence Cell-Based Dose Confirmation HTS to Identify Activators of 5'UTR Stem-Loop Driven Alpha-Synuclein mRNA Translation in H4 Neuroglioblastoma Cells. [Related pubchem assays: 1829 (Project Summary), 1814 (Primary HTS)]. The format is functional.
Details: not given
`CCN1CCN(C(CNC(=O)c2ccc3c(c2)OCO3)c2cccnc2)CC1` (stereo not given): the EC50 was > 120 µM (not active).
Turning to `COc1ccc(N2C(S)=NC3N2C(S)=NC3(C)c2ccccc2)cc1` (stereo not given), the EC50 is 18.1 µM (active).
On the same count and under the same terms, for `CSc1nsc(SCC(=O)Nc2ccc(C(C)=O)cc2)n1` the value was 4.49 µM (active).
Consider `CC(C)(C)C1CCC(OC(=O)CN2CCOCC2)CC1` (stereo not given), for which the EC50 was 13.5 µM (active).
For the compound `CN(C)c1ccc(N=Nc2ccccc2C(=O)OCC(=O)N(C)C2CCCCC2)cc1`, the EC50 was 85.5 µM (active).
On to `CN1C(=O)C2C=CC1C1C(=O)N(c3ccccc3)C(=O)C21` (stereo not given), for which the EC50 is 0.128 µM (active).
Still for that read-out and setting: the figure for `CCO[C@@H]1OC(C(=O)NCc2nc3ccccc3[nH]2)=C[C@H](C2CC2)[C@H]1CCCO` is > 120 µM (not active); for `CCOC(=O)C1CCN(C(=O)CN2C(=O)COc3ccc(C(C)(C)C)cc32)CC1` it is > 120 µM (not active).

Tested on in the next test: not listed separately
Description: Luminescence Cell-Based Dose Response HTS to Identify Activators of Luciferase Translation or Activity in H4 […] Cells. [Related pubchem assays: 1829 (Project Summary), 1814 (Primary HTS)]. The format is functional.
Details: not given
On to `CCN1CCN(C(CNC(=O)c2ccc3c(c2)OCO3)c2cccnc2)CC1` (stereo not given), for which the EC50 is 11.5 µM (active).
Consider `COc1ccc(N2C(S)=NC3N2C(S)=NC3(C)c2ccccc2)cc1` (stereo not given), for which the EC50 is 35 µM (active).
The same measure, in the same setting: for `CSc1nsc(SCC(=O)Nc2ccc(C(C)=O)cc2)n1` the value was 23.5 µM (active).
With `CC(C)(C)C1CCC(OC(=O)CN2CCOCC2)CC1` (stereo not given), the EC50 is 8.04 µM (active).
As to `CN(C)c1ccc(N=Nc2ccccc2C(=O)OCC(=O)N(C)C2CCCCC2)cc1`, the EC50 was 84.2 µM (active).
For the compound `CN1C(=O)C2C=CC1C1C(=O)N(c3ccccc3)C(=O)C21` (stereo not given), the EC50 is 0.45 µM (active).
Turning to `CCO[C@@H]1OC(C(=O)NCc2nc3ccccc3[nH]2)=C[C@H](C2CC2)[C@H]1CCCO`, the EC50 is given as > 120 µM (not active).
Take `CCOC(=O)C1CCN(C(=O)CN2C(=O)COc3ccc(C(C)(C)C)cc32)CC1`: the EC50 was > 120 µM (not active).

A further test concerns Streptococcus sp. 'group A'. Briefly: Streptococcus pyogenes SK(-)GAS viability under kanamycin – luminescence, BacTiterGlo, confirmation, counter-screen for streptokinase expression inhibitor project, dose response (AID 1900). The format is functional, organism-based.
Details: not given
In general terms: The purpose of a counterscreen is to sort out artefacts and off-target activity.
As for `O=C(O)c1cnc(-c2ccccc2)nc1Sc1ccc(Cl)cc1Cl`, the EC50 is 15.4 µM (active).
Consider `Cc1ccc(-c2nn(-c3ccccc3)cc2/C=N/O)cc1`, for which the EC50 is > 150 µM (not active).

A further test relates to H4. Description: Luminescence Cell-Based Dose Response HTS to Identify Activators of 5'UTR Stem-Loop Driven Prion Protein mRNA Translation in H4 Neuroglioblastoma Cells. [Related pubchem assays: 1829 (Project Summary), 1814 (Primary HTS)]. The format is functional. To be noted: Homo sapiens.
Consider `CCN1CCN(C(CNC(=O)c2ccc3c(c2)OCO3)c2cccnc2)CC1` (stereo not given), for which the EC50 is 15.6 µM (active).
Regarding `COc1ccc(N2C(S)=NC3N2C(S)=NC3(C)c2ccccc2)cc1` (stereo not given), the EC50 is 53.5 µM (active).
As for `CSc1nsc(SCC(=O)Nc2ccc(C(C)=O)cc2)n1`, the EC50 is 6.18 µM (active).
Consider `CC(C)(C)C1CCC(OC(=O)CN2CCOCC2)CC1` (stereo not given), for which the EC50 is 19.6 µM (active).
In the case of `CN(C)c1ccc(N=Nc2ccccc2C(=O)OCC(=O)N(C)C2CCCCC2)cc1`, the EC50 is 51.8 µM (active).
Take `CN1C(=O)C2C=CC1C1C(=O)N(c3ccccc3)C(=O)C21` (stereo not given): the EC50 is 0.209 µM (active).
For the compound `CCO[C@@H]1OC(C(=O)NCc2nc3ccccc3[nH]2)=C[C@H](C2CC2)[C@H]1CCCO`, the EC50 is listed as > 120 µM (not active).
Take `CCOC(=O)C1CCN(C(=O)CN2C(=O)COc3ccc(C(C)(C)C)cc32)CC1`: the EC50 was > 120 µM (not active).

The target in the next test is T1, Streptokinase A (Streptococcus pyogenes serotype M1, UniProt P10520).
T1 sequence (P10520 whole entry): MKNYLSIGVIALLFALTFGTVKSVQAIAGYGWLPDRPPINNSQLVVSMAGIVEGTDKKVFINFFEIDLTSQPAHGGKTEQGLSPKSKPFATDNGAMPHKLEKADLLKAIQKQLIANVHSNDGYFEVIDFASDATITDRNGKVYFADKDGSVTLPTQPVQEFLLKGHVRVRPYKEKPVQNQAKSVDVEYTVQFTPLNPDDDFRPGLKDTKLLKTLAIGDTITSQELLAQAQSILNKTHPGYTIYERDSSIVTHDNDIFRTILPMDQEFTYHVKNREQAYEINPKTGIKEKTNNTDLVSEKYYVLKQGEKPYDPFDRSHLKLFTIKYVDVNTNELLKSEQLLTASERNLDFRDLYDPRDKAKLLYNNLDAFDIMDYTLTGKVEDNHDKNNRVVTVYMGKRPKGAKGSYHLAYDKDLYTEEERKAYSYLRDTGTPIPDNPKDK
Description: viability-normalized secreted streptokinase activity reduction – plasminogen activation absorbance, OD405, dose response (AID 1914).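 Further: secreted streptokinase activity via plasminogen activation per viability signal from cell pellet.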
Details: not given
The class given is functional, Streptococcus pyogenes M1 GAS.
For the compound `O=C(O)c1cnc(-c2ccccc2)nc1Sc1ccc(Cl)cc1Cl`, the EC50 is 18.8 µM (active).
In the case of `Cc1ccc(-c2nn(-c3ccccc3)cc2/C=N/O)cc1`, the EC50 is listed as > 150 µM (not active).

Tested on in another test: not listed separately
Briefly: fluconazole-exposed Candida albicans growth modulators – fluorescence, retest, confirmation (AID 2467).
Details: not given
The format is functional, cell-based.
For `O=C(O)c1cnc(-c2ccccc2)nc1Sc1ccc(Cl)cc1Cl`, the EC50 is 0.13 µM (active).
Still for that read-out and setting: the figure for `COc1cccc2c1Oc1ncccc1N(C(=O)CCC(=O)NCc1ccccc1F)C2` is > 38 µM (not active); for `CC[n+]1c(/C=C/N(C)c2ccccc2)oc2ccccc21` it is 3.58 µM (active).
With `Nc1ccccc1-[n+]1c(-c2ccccc2)cc(-c2ccccc2)cc1-c1ccccc1.[O-][Cl+3]([O-])([O-])[O-]`, the EC50 is 0.843 µM (active).
`O=C(NNc1ccc([N+](=O)[O-])cc1)c1ccccc1Cl`: the EC50 is reported as > 38 µM (not active).
For `O=S(=O)(Nc1nc(-c2ccccc2)cs1)c1cc(Cl)ccc1Cl`, the EC50 is 1.8 µM (active).

Tested on in the next test: not listed separately
Briefly: Trypanosoma cruzi growth suppression in host cells – NIH3T3 host cells, beta-gal luminescence, confirmation (AID 2044).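 Further: intracellular parasites grown in NIH/3T3 mouse fibroblasts as host cells; luminescent beta-galactosidase reporter signal from transgenic T. cruzi replicating inside host cells; inhibitors lower the luminescence signal.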 The format is functional, cell-based.
Details: not given
Turning to `CC[n+]1c(/C=C/N(C)c2ccccc2)oc2ccccc21`, the EC50 is 0.258 µM (active).
The same measure, in the same setting: for `Nc1ccccc1-[n+]1c(-c2ccccc2)cc(-c2ccccc2)cc1-c1ccccc1.[O-][Cl+3]([O-])([O-])[O-]` the value was 0.114 µM (active).

Tested on in another test: not listed separately
Briefly: NIH3T3 cell viability loss – ATP luminescence, mouse fibroblasts, counter-screen, dose response (AID 2010).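 Further: cells exposed to compound for about 90 hours before reading.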
Details: not given
The class given is functional, cell-based.
In the case of `CC[n+]1c(/C=C/N(C)c2ccccc2)oc2ccccc21`, the EC50 was 16.9 µM (active).
In the case of `Nc1ccccc1-[n+]1c(-c2ccccc2)cc(-c2ccccc2)cc1-c1ccccc1.[O-][Cl+3]([O-])([O-])[O-]`, the EC50 was > 60 µM (not active).

Another test deals with Streptococcus. Description: GAS UMAA2166 growth inhibition – luminescence, BacTiterGlo, counter-screen for streptokinase expression inhibitor project, dose response (AID 1915).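 Further: potency for reduction of bacterial viability or growth.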 The format is functional, organism-based.
Details: not given
Regarding `O=C(O)c1cnc(-c2ccccc2)nc1Sc1ccc(Cl)cc1Cl`, the EC50 is listed as > 150 µM (not active).
In the case of `Cc1ccc(-c2nn(-c3ccccc3)cc2/C=N/O)cc1`, the EC50 is > 150 µM (not active).

Another test concerns the target T2, Corticotropin-releasing factor receptor 2/Corticotropin-releasing factor-binding protein (Homo sapiens, UniProt P24387+Q13324).
T2 sequence (Q13324 whole entry): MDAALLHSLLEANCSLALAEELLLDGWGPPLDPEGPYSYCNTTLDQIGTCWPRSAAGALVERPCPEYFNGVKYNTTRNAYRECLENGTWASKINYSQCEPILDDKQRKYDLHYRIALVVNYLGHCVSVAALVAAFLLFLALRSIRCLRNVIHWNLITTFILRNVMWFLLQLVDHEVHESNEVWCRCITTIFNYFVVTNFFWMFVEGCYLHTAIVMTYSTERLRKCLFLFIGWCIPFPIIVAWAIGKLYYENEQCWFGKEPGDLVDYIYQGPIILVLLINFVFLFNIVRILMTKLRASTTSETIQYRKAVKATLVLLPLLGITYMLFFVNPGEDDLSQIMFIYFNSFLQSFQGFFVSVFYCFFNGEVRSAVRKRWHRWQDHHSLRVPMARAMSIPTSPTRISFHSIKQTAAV
T2 sequence (P24387 whole entry): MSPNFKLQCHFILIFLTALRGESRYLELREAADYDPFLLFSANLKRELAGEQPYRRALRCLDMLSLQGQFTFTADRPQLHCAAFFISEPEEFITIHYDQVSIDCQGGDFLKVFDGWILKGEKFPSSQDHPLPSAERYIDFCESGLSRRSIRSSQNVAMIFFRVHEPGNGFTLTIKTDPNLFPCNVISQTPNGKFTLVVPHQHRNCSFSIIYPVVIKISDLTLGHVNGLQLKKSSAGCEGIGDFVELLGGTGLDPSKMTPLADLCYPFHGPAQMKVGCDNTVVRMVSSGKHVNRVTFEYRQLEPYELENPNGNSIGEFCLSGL
Description: Dose Response confirmation of uHTS hits for small molecule antagonists of the CRF-binding protein and CRF-R2 receptor complex. The following applies: read-out: IC50_Mean. The format is functional.
On to `O=C(O)c1cnc(-c2ccccc2)nc1Sc1ccc(Cl)cc1Cl`, for which the IC50 was 1.85 µM (active).

A further test has as its target T2, Corticotropin-releasing factor receptor 2/Corticotropin-releasing factor-binding protein. Description: activators of CRF receptor 2 with binding protein – uHTS hits, confirmation (AID 602473). The format is functional. To be noted: read-out: EC50_Mean.
As to `O=C(O)c1cnc(-c2ccccc2)nc1Sc1ccc(Cl)cc1Cl`, the EC50 was > 53 µM (inactive).

For the origin of these results see ChEMBL document CHEMBL1201862, “PubChem BioAssay data set” (2004).
